The source made the active and inactive calls. The calls are words filed in the database; no cut-off is given here.
Columns and labels:
Plasmodium falciparum [1] = experiment: Antimalarial activity against Plasmodium falciparum T9-96 infected Rhesus positive human erythrocytes by [3H]hypoxanthine uptake; type: functional, organism-based
Plasmodium yoelii [2] = experiment: Antimalarial activity as reduced parasitaemia against Plasmodium yoelii YM in CD1 mice (Mus musculus) after 7 peroral doses over 4 days; type: functional; conditions: po, 96 h
Plasmodium falciparum [3] = experiment: Antimalarial activity against Plasmodium falciparum 3D7A infected erythrocytes by [3H]hypoxanthine uptake; type: functional, organism-based
Plasmodium falciparum [4] = experiment: Antimalarial activity against Plasmodium falciparum FCR3-A infected erythrocytes as [3H]hypoxanthine incorporation; type: functional, organism-based
Plasmodium yoelii [5] = experiment: Antimalarial activity as reduced parasitaemia against Plasmodium yoelii YM in CD1 mice (Mus musculus) given a single peroral dose; type: functional; conditions: po
Plasmodium falciparum [6] = experiment: Antimalarial activity as parasite elimination against Plasmodium falciparum infected Aotus monkeys at 10 mg/kg/day for 7 days; type: functional, organism-based

SMILES	IC50 (Plasmodium falciparum [1]) [nM]	ED50 (Plasmodium yoelii [2]) [mg/kg]	IC50 (Plasmodium falciparum [3]) [nM]	IC50 (Plasmodium falciparum [4]) [nM]	ED50 (Plasmodium yoelii [5]) [mg/kg]	Activity (Plasmodium falciparum [6])
CCCCCCCCc1c(C)[nH]c(C)c(Cl)c1=O	4000	> 60				
Cc1[nH]c(C)c(-c2cccc(Oc3ccc(OC(F)(F)F)cc3)c2)c(=O)c1Br			7			
Cc1cc(=O)c(-c2ccc(Oc3ccc(C(F)(F)F)cc3)cc2)c(C)[nH]1	500	1.3				
Cc1[nH]c(C)c(-c2ccc(Oc3cccc(Cl)c3)cc2)c(=O)c1Br	30	3.9				
Cc1[nH]c(C)c(-c2ccc(-c3ccc(Cl)cc3)cc2)c(=O)c1Cl	400	0.7				
O=C1C(O)=C([C@H]2CC[C@H](c3ccc(Cl)cc3)CC2)C(=O)c2ccccc21 [ATOVAQUONE]	3	0.03		1360		
Cc1[nH]c(C(F)(F)F)c(Br)c(=O)c1-c1ccc(Oc2ccc(OC(F)(F)F)cc2)cc1			> 1000			
Cc1cc(=O)c(-c2ccc(Oc3ccc(Cl)cc3)cc2)c(C)[nH]1	250	2.5				
Cc1[nH]c(C)c(-c2ccc(Oc3cccc(C(F)(F)F)c3)cc2)c(=O)c1Cl	30	0.2	5	2.5	0.2	
Cc1[nH]c(C)c([C@H]2CC[C@H](c3ccc(Cl)cc3)CC2)c(=O)c1Cl	50	0.6				
Cc1[nH]c(C)c(-c2ccccc2)c(=O)c1Cl	11000	22				
Cc1c(Br)c(=O)c(-c2ccc(Oc3ccc(Cl)cc3)cc2)c(C)n1O	450	1				
Cc1[nH]c(C)c(-c2ccc(Oc3ccc(C(F)(F)F)cc3)cc2)c(=O)c1Br	30	0.3			1.1	
Cc1[nH]c(C)c(-c2ccc(Oc3ccc(OC(F)(F)F)cc3)cc2)c(=O)c1Br	30	0.3	8		0.2	Active
Cc1[nH]c(C)c(-c2ccc(Oc3cccc(Cl)c3)cc2)c(=O)c1Cl	30	> 5				
Cc1[nH]c(C)c(C(F)(F)F)c(=O)c1-c1ccc(Oc2ccc(OC(F)(F)F)cc2)cc1			30			
Cc1[nH]c(C)c(-c2ccc(Oc3ccc(Cl)cc3)cc2)c(=O)c1Br	40	0.3			5	
Cc1[nH]cc(Br)c(=O)c1-c1ccc(Oc2ccc(OC(F)(F)F)cc2)cc1			110			

SMILES	IC50 (Plasmodium falciparum [1]) [nM]	ED50 (Plasmodium yoelii [2]) [mg/kg]	IC50 (Plasmodium falciparum [3]) [nM]	IC50 (Plasmodium falciparum [4]) [nM]	ED50 (Plasmodium yoelii [5]) [mg/kg]	Activity (Plasmodium falciparum [6])
Cc1[nH]c(C)c(-c2ccc(Oc3ccc(Cl)cc3)cc2)c(=O)c1Cl	60	0.6				
Cc1cc(=O)c(-c2ccc(Oc3ccc(Cl)cc3)cc2)c(C)n1O	2200	> 1				
Cc1[nH]c(C)c(-c2ccc(Oc3ccc(F)cc3)cc2)c(=O)c1Br	40	0.6				
CCN(CC)CCCC(C)Nc1ccnc2cc(Cl)ccc12 (centres undefined) [CHLOROQUINE]		1.8				
COc1c(C)[nH]c(C)c(-c2ccc(Oc3cccc(C(F)(F)F)c3)cc2)c1=O			300			
Cc1[nH]c(C)c(-c2ccc(Oc3ccc(OC(F)(F)F)cc3)cc2)c(=O)c1CN1CCCC1			1290			
Cc1[nH]c(C)c([N+](=O)[O-])c(=O)c1-c1ccc(Oc2ccc(OC(F)(F)F)cc2)cc1			30			
Cc1[nH]c(C)c(-c2ccc(Oc3ccc(C(F)(F)F)cc3)cc2)c(=O)c1Cl	60	0.6				
Cc1[nH]c(C)c(-c2ccc(Oc3ccccc3)cc2)c(=O)c1Br	150	4				
Cc1[nH]c(C)c(-c2ccc(Oc3ccc(OC(F)(F)F)cc3)cc2)c(=O)c1Cl	30	0.2	5	1	0.4	Active
Cc1[nH]c(C)c(-c2ccc(Cl)cc2)c(=O)c1Cl	2500	20				
O=c1c(-c2ccc(Oc3ccc(OC(F)(F)F)cc3)cc2)c[nH]c(C(F)(F)F)c1Br			> 1000			
Cc1nc(C)c(Cl)c(O)c1Cl [CLOPIDOL]	20000	40				
Cc1cc(=O)c(-c2ccc(Oc3ccc(OC(F)(F)F)cc3)cc2)c(C)[nH]1	160	> 5	160			
Cc1[nH]cc(-c2ccc(Oc3ccc(OC(F)(F)F)cc3)cc2)c(=O)c1Br			200			
Cc1[nH]c(C)c(-c2ccccc2Oc2ccc(OC(F)(F)F)cc2)c(=O)c1Br			400			
Cc1[nH]c(C)c(-c2ccc(Oc3cccc(C(F)(F)F)c3)cc2)c(=O)c1Br	30	0.6			3.6	

Source: ChEMBL document CHEMBL1150240, “Synthesis and structure-activity relationships of 4-pyridones as potential antimalarials” (J Med Chem, 2008)
